Positions of bridges follow the written chain, without caps; N, C: chain ends. Non-standard residues stand in square brackets, D forms with d. Chains are numbered I, II in the order given. No end group written: not given here. βAib = beta-Aib residue; PEG = not defined here; βAla = NCCC(=O)O
Test system: Normal Kunming (KM) mice
Experiment: multiple OGTT (mOGTT): hypoglycemic duration after a single administration
Type: in vivo
Details: monomeric peptides, single injection at the same dose (1.126 nmol), subcutaneous
Method in brief: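 Tail blood glucose was followed by meter in normal KM mice after one dosing and glucose gavage, at 0, 10, 20, 40, 60 and 120 min. Measurement stopped when the treated mean rose above the NaCl group twice; the period before that is the effective duration.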

Substance	Hypoglycemic [days]
His-βAib-Glu-Gly-Thr-Phe-Thr-Ser-Asp-Val-Cys-Ser-Tyr-Leu-Glu-Gly-Gln-Ala-Ala-Lys[N-ϵ-(N-α-oleoyl-L-γ-glutamyl)]-Glu-Phe-Ile-Ala-Trp-Leu-Val-Arg-Gly-Arg-Gly-NH2 (HXEGTFTSDVCSYLEGQAAXEFIAWLVRGRG; βAib; oleoyl-γ-glutamyl on Lys; C-terminal amide; Sequence is synthesized; (2)..(2) Xaa is bAib; (20)..(20) Xaa is 26Lys[N-e-(N-a-oleoyl-L-g-glutamyl)]; (31)..(31) N-terminal) [G2 series 15]	5
His-βAib-Glu-Gly-Thr-Phe-Thr-Ser-Asp-Val-Ser-Cys-Tyr-Leu-Glu-Gly-Gln-Ala-Ala-Lys-Glu-Phe-Ile-Ala-Trp-Leu-Val-Arg-βAib-Arg-NH2 (H[βAib]EGTFTSDVSCYLEGQAAKEFIAWLVR[βAib]R-NH2; also: disulfide-linked homodimer via Cys12) [G7 series 54]	2
His-aAib-Glu-Gly-Thr-Phe-Thr-Ser-Asp-Val-Ser-Cys-Tyr-Leu-Glu-Gly-Gln-Ala-Ala-Lys[N-ϵ-(N-α-oleoyl-L-γ-glutamyl)]-Glu-Phe-Ile-Ala-Trp-Leu-Val-Arg-Gly-Arg-Gly-OH (HXEGTFTSDVSCYLEGQAAXEFIAWLVRGRG; Aib; oleoyl-gamma-Glu on Lys; C-terminal acid; Sequence is synthesized; (2)..(2) Xaa is aAib; (20)..(20) Xaa is LyO; (31)..(31) C-terminal) [G6 series 46]	5
His-aAib-Glu-Gly-Thr-Phe-Thr-Cys-Asp-Val-Ser-Ser-Tyr-Leu-Glu-Gly-Gln-Ala-Ala-Lys[N-ϵ-(N-α-Palmitoyl-γ-glutamyl)]-Glu-Phe-Ile-Ala-Trp-Leu-Val-Arg-Gly-Arg-Gly-NH2 (HXEGTFTCDVSSYLEGQAAXEFIAWLVRGRG; Aib; palmitoyl-gamma-Glu on Lys; C-terminal amide; Sequence is synthesized; (2)..(2) Xaa is aAib; (20)..(20) Xaa is 26Lys[N-e-(N-a-palmitoyl-L-g-glutamyl)]; (31)..(31) N-terminal) [G8 series 61]	4
His-βAla-Glu-Gly-Thr-Phe-Thr-Cys-Asp-Val-Ser-Ser-Tyr-Leu-Glu-Gly-Gln-Ala-Ala-Lys[N-ϵ-(N-α-oleoyl-L-γ-glutamyl)]-Glu-Phe-Ile-Ala-Trp-Leu-Val-Arg-Gly-Arg-Gly-NH2 (HXEGTFTCDVSSYLEGQAAXEFIAWLVRGRG; beta-amino acid; oleoyl-gamma-Glu on Lys; C-terminal amide; Sequence is synthesized; (2)..(2) Xaa is bAla; (20)..(20) Xaa is 26Lys[N-e-(N-a-oleoyl-L-g-glutamyl)]; (31)..(31) N-terminal) [G8 series 68]	4
His-Ala-Glu-Gly-Thr-Phe-Thr-Ser-Asp-Val-Ser-Cys-Tyr-Leu-Glu-Gly-Gln-Ala-Ala-Lys[N-ϵ-(N-α-Palmitoyl)]-Glu-Phe-Ile-Ala-Trp-Leu-Val-Arg-Gly-Arg-Gly-NH2 (HAEGTFTSDVSCYLEGQAAXEFIAWLVRGRG; palmitoyl on Lys side chain; C-terminal amide; Sequence is synthesized; (20)..(20) Xaa is 26Lys[N-e-(N-a-palmitoyl-L-g-glutamyl)]; (31)..(31) N-terminal) [G4 series 35]	6
His-Ala-Glu-Gly-Thr-Phe-Thr-Ser-Asp-Val-Ser-Cys-Tyr-Leu-Glu-Gly-Gln-Ala-Ala-Lys-Glu-Phe-Ile-Ala-Trp-Leu-Val-Arg-Gly-Arg-NH-PEG (HAEGTFTSDVSCYLEGQAAKEFIAWLVRGR; not fully specified; C-terminal PEG; Sequence is synthesized; (30)..(30) N-terminal is modified with PEG) [G9 series 71]	3
His-βAla-Glu-Gly-Thr-Phe-Thr-Ser-Asp-Val-Ser-Cys-Tyr-Leu-Glu-Gly-Gln-Ala-Ala-Lys[N-ϵ-(N-α-oleoyl-L-γ-glutamy)]-Glu-Phe-Ile-Ala-Trp-Leu-Val-Arg-Gly-Arg-Gly-NH2 (HXEGTFTSDVSCYLEGQAAXEFIAWLVRGRG; beta-amino acid; oleoyl-gamma-Glu on Lys; C-terminal amide; Sequence is synthesized; (2)..(2) Xaa is bAla; (20)..(20) Xaa is 26Lys[N-e-(N-a-oleoyl-L-g-glutamyl)]; (31)..(31) N-terminal) [G6 series 50]	4
His-Ala-Glu-Gly-Thr-Phe-Thr-Ser-Asp-Val-Cys-Ser-Tyr-Leu-Glu-Gly-Gln-Ala-Ala-Lys[N-ϵ-(N-α-Palmitoyl)]-Glu-Phe-Ile-Ala-Trp-Leu-Val-Arg-Gly-Arg-Gly-OH (HAEGTFTSDVCSYLEGQAAXEFIAWLVRGRG; palmitoyl on Lys; C-terminal acid; Sequence is synthesized; (20)..(20) Xaa is 26Lys[N-e-(N-a-palmitoyl-L-g-glutamyl)]; (31)..(31) C-terminal) [G4 series 24]	3
His-aAib-Glu-Gly-Thr-Phe-Thr-Ser-Asp-Val-Cys-Ser-Tyr-Leu-Glu-Gly-Gln-Ala-Ala-Lys[N-ϵ-(N-α-Palmitoyl-γ-glutamyl)]-Glu-Phe-Ile-Ala-Trp-Leu-Val-Arg-Gly-Arg-Gly-NH2 (HXEGTFTSDVCSYLEGQAAXEFIAWLVRGRG; αAib; palmitoyl-γ-glutamyl on Lys; C-terminal amide; Sequence is synthesized; (2)..(2) Xaa is aAib; (20)..(20) Xaa is 26Lys[N-e-(N-a-Palmitoyl-g-glutamyl)]; (31)..(31) N-terminal) [G2 series 12]	6
His-Ala-Glu-Gly-Thr-Phe-Thr-Cys-Asp-Val-Ser-Ser-Tyr-Leu-Glu-Gly-Gln-Ala-Ala-Lys[N-ϵ-(N-α-Palmitoyl-L-γ-glutamyl)]-Glu-Phe-Ile-Ala-Trp-Leu-Val-Arg-Gly-Arg-Gly-NH2 (HAEGTFTCDVSSYLEGQAAXEFIAWLVRGRG; palmitoyl-gamma-Glu on Lys; C-terminal amide; Sequence is synthesized; (20)..(20) Xaa is 26Lys[N-e-(N-a-palmitoyl-L-g-glutamyl)]; (31)..(31) N-terminal) [G8 series 57]	2

Same assay, conditions: single injection at the same dose (1.126 nmol), subcutaneous

Substance	Hypoglycemic duration [days]
2G8 series 59: disulfide-linked homodimer of monomer SEQ ID NO: 59 (HAEGTFTCDVSSYLEGQAAXEFIAWLVRGRG; disulfide-linked homodimer; Sequence is synthesized; (20)..(20) Xaa is 26Lys[N-e-(N-a-oleoyl-L-g-glutamyl)]; (31)..(31) N-terminal)	5
2G6 series 50: disulfide-linked homodimer of monomer SEQ ID NO: 50 (HXEGTFTSDVSCYLEGQAAXEFIAWLVRGRG; disulfide-linked homodimer; Sequence is synthesized; (2)..(2) Xaa is bAla; (20)..(20) Xaa is 26Lys[N-e-(N-a-oleoyl-L-g-glutamyl)]; (31)..(31) N-terminal)	16
2G8 series 68: disulfide-linked homodimer of monomer SEQ ID NO: 68 (HXEGTFTCDVSSYLEGQAAXEFIAWLVRGRG; disulfide-linked homodimer; Sequence is synthesized; (2)..(2) Xaa is bAla; (20)..(20) Xaa is 26Lys[N-e-(N-a-oleoyl-L-g-glutamyl)]; (31)..(31) N-terminal)	7
2G9 series 71: disulfide-linked homodimer of PEG-modified monomer SEQ ID NO: 71 (HAEGTFTSDVSCYLEGQAAKEFIAWLVRGR-{NH2-PEG}; reading uncertain; also: disulfide-linked homodimer)	5
2G4 series 33: disulfide-linked homodimer of monomer SEQ ID NO: 33 (HAEGTFTSDVSCYLEGQAAXEFIAWLVRGRG; not fully specified; disulfide-linked homodimer; Sequence is synthesized; (20)..(20) Xaa is 26Lys[N-e-(N-a-oleoyl-L-g-glutamyl)]; (31)..(31) N-terminal)	16
2G2 series 19: disulfide-linked homodimer of monomer SEQ ID NO: 19 (chain 1 H[βAla]EGTFTSDVCSYLEGQAAKEFIAWLVR[βAla]R; chain 2 H[βAla]EGTFTSDVCSYLEGQAAKEFIAWLVR[βAla]R; disulfide I:11-II:11 (inferred); not fully specified (C-terminus))	3
2G2 series 9: disulfide-linked homodimer of monomer SEQ ID NO: 9 (HAEGTFTSDVCSYLEGQAAXEFIAWLVRGRG; disulfide-linked homodimer; Sequence is synthesized; (20)..(20) Xaa is 26Lys[N-e-(N-a-oleoyl-L-g-glutamyl)]; (31)..(1) C-terminal)	5
2G8 series 56: disulfide-linked homodimer of monomer SEQ ID NO: 56 (HAEGTFTCDVSSYLEGQAAXEFIAWLVRGRG; disulfide-linked homodimer; Sequence is synthesized; (20)..(20) Xaa is 26Lys[N-e-(N-a-palmitoyl-L-g-glutamyl)]; (31)..(31) C-terminal)	2
2G8 series 66: disulfide-linked homodimer of monomer SEQ ID NO: 66 (HXEGTFTCDVSSYLEGQAAXEFIAWLVRGRG; disulfide-linked homodimer; Sequence is synthesized; (2)..(2) Xaa is bAib; (20)..(20) Xaa is 26Lys[N-e-(N-a-oleoyl-L-g-glutamyl)]; (31)..(31) N-terminal)	8

From patent publication US20240150423A1, “GLP-1 ANALOGUE-MODIFIED DIMERS WITH DIFFERENT CONFIGURATIONS, PREPARATION METHOD THEREOF, AND APPLICATION THEREOF IN TREATMENT OF TYPE II DIABETES” (Nanjing Finepeptide Biopharmaceutical Co.,Ltd, priority 2019, published 2024)
